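Test compounds were applied to cells in 96-well plates for 48 hours at 5 doses. GI50 = concentration required for 50% inhibition of growth. The concentration for full growth arrest is given as TGI.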 Some results are limits rather than exact numbers.

Assay in all cases: NCI-60 cell line screen, 48 h
The test system of assay [1] is HL-60(TB) leukemia.
The subject of assay [2] is K-562 leukemia.
Assay [3] relates to LOX IMVI melanoma.
In assay [4] the test system is M14 melanoma.
Assay [5] deals with NCI-H23 lung.
Assay [6] relates to SF-539 CNS.
In assay [7] the test system is SK-MEL-2 melanoma.
Assay [8] relates to UACC-257 melanoma.
Assay [9] concerns BT-549 breast.

In the case of `Cc1ccccc1NC(=O)C(=O)C(C#N)c1ccc(Cl)cc1` (stereo not given), the TGI in assay [1] was > 100 µM; in assay [2] it was > 100 µM; in assay [3], 31 µM; in assay [4], > 100 µM; in assay [5], > 100 µM; in assay [6], 83.5 µM. The TGI in assay [7] and in assay [8] was > 100 µM each time.

Take `CC(C)(C)OC1=C(OC(C)(C)C)C(O)(c2ccccc2)C1=O` (stereo not given): the TGI in assay [1], in assay [2], in assay [3], in [4], in assay [5] and in assay [6] was > 100 µM each time.

On to `Cc1ccc(NC(=O)c2cc3cc(N=Nc4ccc(Br)cc4)ccc3oc2=O)cc1`, for which the TGI in assay [1], in [3], in assay [5], in [7] and in assay [8] was > 100 µM each time.

Consider `COc1ccc(C2CC(=O)c3c(O)cc(O)cc3O2)cc1O` (stereo not given), for which the TGI in assay [1], in assay [2], in [3], in assay [4], in assay [5] and in assay [6] was > 100 µM throughout. The TGI in assay [7] and in assay [8] was > 100 µM throughout.

With `O=C(Nc1ccccc1-c1n[nH]c(=S)[nH]c1=O)C(F)(F)F`, the TGI in assay [2], in assay [3], in assay [4], in assay [5], in assay [6] and in assay [7] was > 100 µM each time.

In the case of `O=C(Nc1ccc(Cl)cc1Cl)C1C(=O)N(c2ccc(Cl)cc2Cl)C(=O)/C1=N\Nc1ccc([N+](=O)[O-])cc1[N+](=O)[O-]` (stereo not given), the TGI was > 100 µM in assay [1]; > 100 µM in assay [2]; > 100 µM in assay [4]; 87.6 µM in assay [5]; > 100 µM in assay [6]; > 100 µM in assay [7]. For the same compound, the TGI in assay [8] stood at 98.7 µM.

Turning to `CS/C(=N\C(=S)N(C)C)N(c1ccccc1)c1nc(=[N+](C)C)ss1`, the TGI in assay [1] is 5.98 µM; in assay [2] it was 12.5 µM; in assay [3] it was 18.1 µM; in assay [4], 16.7 µM; in assay [5], 51.7 µM; in assay [6], 25.5 µM. The TGI was 36.6 µM in assay [7] and 17.3 µM in [8].

As for `FC(F)(F)Oc1cccc(-c2cnc3ccc(-c4ccncc4)nn23)c1`, the GI50 in [9] is 1.42 µM; in assay [1], 1.82 µM; in assay [2], 3.49 µM; in [3] it was 1.07 µM; in assay [4] it was 0.769 µM; in assay [5] it was 1.96 µM. The GI50 was 1.13 µM in assay [6] and 2.02 µM in assay [8]. In addition, the TGI in assay [9] is 8.88 µM; in assay [1], 4.29 µM; in assay [2] it was > 100 µM; in assay [3], 10.2 µM; in assay [4], > 100 µM; in assay [5], 17.4 µM. The same compound showed a TGI in assay [6] of 7.4 µM.

For `ON/N=C/c1cc2c(cc1Br)OCO2`, the TGI in assay [1], in assay [2], in [3], in assay [5], in assay [6] and in assay [7] was > 386 µM each time. Besides, the TGI in assay [8] is > 386 µM.

Regarding `CCOC(=O)Nc1cc2nnc(-c3ccccc3)nc2c(N)n1`, the TGI in assay [1] is 37.5 µM; in [2] it was > 100 µM; in assay [3], 30.8 µM; in assay [4] it was > 100 µM; in [5], 64.2 µM; in assay [6], 61.9 µM. In addition, the TGI in assay [7] and in assay [8] was > 100 µM in each case.

Take `COC(=O)C1=C(c2ccc(OC)c(OC)c2)OC(c2ccc(OC)c(OC)c2)C1` (stereo not given): the TGI in [1] is 44.6 µM; in assay [2] it was > 100 µM; in assay [3], > 100 µM; in [4] it was > 100 µM; in assay [5], > 100 µM; in [6] it was > 100 µM. The TGI in assay [7] and in assay [8] was > 100 µM each time.

With `CC(NS(=O)(=O)c1ccc([N+](=O)[O-])cc1)C(=O)O` (stereo not given), the TGI in [1], in assay [2], in [3], in [4], in assay [5] and in assay [6] was > 100 µM in each case. In addition, the TGI in assay [7] and in [8] was > 100 µM in each case.

As for `Cc1ccc(S(=O)(=O)c2c(N)c3nc4ccccc4n3c3nc4ccccc4nc23)cc1`, the TGI in [2], in [3], in [4], in assay [5], in assay [6] and in [7] was > 100 µM each time. For the same compound, the TGI in assay [8] was > 100 µM.

In the case of `Cc1cc(N(CCC#N)CCC#N)ccc1/C=C1N=C(/C=C\c2ccccc2)OC\1=O`, the TGI in assay [1], in [2], in assay [3], in assay [4], in [5] and in assay [6] was > 100 µM each time. The TGI in [7] and in assay [8] was > 100 µM each time.

Turning to `O=C(Nc1c(O)[nH]c(=S)[nH]c1=O)c1ccccc1F`, the TGI in [1], in assay [2], in assay [3], in assay [4], in [5] and in [6] was > 100 µM in each case. The TGI in assay [7] and in [8] was > 100 µM throughout.

`O=C(/C=C/c1ccc(OCCCOc2ccc(/C=C/C(=O)c3ccccc3)cc2)cc1)c1ccccc1`: the TGI in [1], in assay [2], in assay [3], in assay [4], in [5] and in assay [6] was > 100 µM in each case. For the same compound, the TGI in assay [7] and in assay [8] was > 100 µM throughout.

For the compound `CC1CC(C2=CC=CCS2)=Nc2ccccc2S1` (stereo not given), the TGI in assay [1], in [2], in assay [3], in [4], in assay [5] and in [6] was > 100 µM each time. The TGI in [7] and in assay [8] was > 100 µM each time.

Regarding `C/C(CN1C(=O)c2ccccc2C1=O)=N\NS(=O)(=O)c1ccc(C)cc1`, the TGI in assay [1], in assay [2], in assay [4], in [5], in assay [6] and in [7] was > 100 µM throughout. In addition, the TGI in [8] was > 100 µM.

Consider `CN(C)c1ccc2c(=O)c3ccccc3oc2n1`, for which the TGI in assay [1], in [2], in assay [3], in assay [4], in assay [5] and in assay [7] was > 100 µM throughout. Besides, the TGI in assay [8] is > 100 µM.

As for `NC1=NC(=O)/C(=C/c2ccccc2[N+](=O)[O-])C(N)=N1`, the TGI in assay [1], in [2], in assay [3], in [4], in [5] and in [6] was > 100 µM in each case. In addition, the TGI in [7] and in assay [8] was > 100 µM each time.

On to `N#Cc1ccccc1NC(=O)/C(=N\N)C(C(=O)c1ccncc1)C1OC(=O)c2ccccc21` (stereo not given), for which the TGI in assay [1], in [2], in assay [3], in assay [4], in [5] and in [6] was > 100 µM throughout. Also, the TGI in [7] and in assay [8] was > 100 µM throughout.

Take `COc1ccccc1/C=C(\C#N)c1ccccc1`: the TGI in assay [2] was 33.8 µM; in assay [3], > 100 µM; in [4] it was 99.4 µM; in assay [5] it was > 100 µM; in assay [6] it was > 100 µM; in assay [7], 94.8 µM. For the same compound, the TGI in assay [8] is > 100 µM.

In the case of `CN1N=CSC12C(=O)N(c1ccc(Cl)cc1)C(=O)N2c1ccc(Cl)cc1` (stereo not given), the TGI in assay [1] was 5.09 µM; in assay [2], 22.3 µM; in assay [3], 8.91 µM; in [4], > 100 µM; in assay [5], 5.14 µM; in [6] it was > 100 µM. The compound also showed a TGI in [8] of 33.5 µM.

Take `COc1cccc2c1C(=O)C=CC2=O`: the TGI in assay [9] was 29.1 µM; in assay [1], 1.09 µM; in [2] it was 4.97 µM; in assay [4], 20.7 µM; in [5] it was 30 µM; in [6], 30.1 µM. Further, the TGI in assay [7] came out at 19.8 µM; in assay [8], 29 µM.

For the origin of these results see PubChem BioAssay (NCI).
